Assay results as given in PMC3027097 (Journal of Translational Medicine, 2011).

Legend:
[1] = test system: ERK2 phosphorylation in VSMC; experiment: hFN-induced ERK2 phosphorylation, western blot, VSMC; type: cell-based; settings: densitometry
Description: (§1) In vitro studies were performed on cell cultures of ECs or VSMCs, cultured in Dulbecco's modified Eagle's medium (DMEM; Sigma-Aldrich, Milan, Italy) as previously described and validated. Cell culture plates were filled with 10 μg/cm^2 of human fibronectin (hFN, Millipore®, Bedford, MA, USA) as described. All experiments were performed in triplicate with cells between passages 5 and 9.
(§2) Immunoblot analyses were performed as previously described and validated. Mouse monoclonal antibodies to extracellular signal regulated kinase (ERK2) and phospho-ERK, anti-rabbit VEGF and actin were from Santa Cruz Biotecnology (Santa Cruz, CA, USA). Levels of VEGF were determined using an antibody raised against VEGF-165 (Santa Cruz Biotechnology). Experiments were performed in triplicate to ensure reproducibility. Data are presented as arbitrary densitometry units (ADU) after normalization for the total corresponding protein or actin as internal control.

[2] = test system: vascular smooth muscle cells (VSMC); experiment: hFN-induced cell proliferation assay (cell number), VSMC; type: cell-based
Description: as §1
(§3) Cell cultures were prepared as previously described. Briefly, cells were seeded at density of 100000 per well in six-well plates, serum starved, pre-incubated at 37°C for 30' with c(RGDf[NMe]V) or RGDechiHCit (10^-6 M). Proliferation was induced using hFN (100 μg/ml). Cell number was measured at 3, 6 and 20 h after stimulation as previously described.

[3] = test system: bovine aortic endothelial cells (ECs); experiment: Endothelial Matrigel assay (tube formation); type: cell-based; settings: hFN 100 μg/ml, peptides 10^-6 M, 37°C, mean ± SEM
Description: The formation of network-like structures by ECs on an extracellular matrix (ECM)-like 3D gel consisting of Matrigel® (BD Biosciences, Bedford, MA, USA), was performed as previously described and validated [27, 28]. The six-well multidishes were coated with growth factor-reduced Matrigel in according to the manufacturer's instructions. ECs (5×10^4) were seeded with c(RGDf[NMe]V) or RGDechiHCit (10^-6 M), in the absence (negative control) or presence (100 μg/ml) of hFN [24]. Cells were incubated at 37°C for 24h in 1 ml of DMEM. […] Network formation was observed using an inverted phase-contrast microscope (Zeiss). Representative fields were taken, and the average of the total number of complete tubes formed by cells was counted in 15 random fields by two independent investigators.

[4] = test system: bovine aortic endothelial cells (EC); experiment: hFN-induced cell proliferation assay (cell number), EC; type: cell-based
Description: as §1, §3

[5] = test system: ERK2 phosphorylation in EC; experiment: hFN-induced ERK2 phosphorylation, western blot, EC; type: cell-based; settings: densitometry
Description: as §1, §2

WKY rats = experiment: Wound healing assay, full-thickness skin wound; type: in vivo, rat
Description: (§4) Wound healing assay was performed on 14-week-old (weight 293 ± 21 g) normotensive WKY male rats (Charles River Laboratories, Calco (LC), Italy; n = 18), and Matrigel plugs experiments were carried out on 16-week-old (weight 33 ± 4 g) c57BL/6 mice (Charles River Laboratories, Milan, Italy; n = 13). All animal procedures were performed in accordance with the Guide for the Care and Use of Laboratory Animals published by the National Institutes of Health in the United States (NIH Publication No. 85- 23, revised 1996) and approved by the Ethics Committee for the Use of Animals in Research of "Federico II" University.
The rats (n = 18) were anesthetized using vaporized isoflurane (4%, Abbott) and maintained by mask ventilation (isoflurane 1.8%)[29]. The dorsum was shaved by applying a depilatory creme (Veet, Reckitt-Benckiser, Milano, Italy) and disinfected with povidone iodine scrub. […] Two operators blinded to the identity of the sample examined and measured wound areas every day, for 8 days. Direct measurements of wound region were determined by digital planimetry (pixel area), and subsequent analysis was performed using a computer-assisted image analyzer (ImageJ software, version 1.41, National Institutes of Health, Bethesda, MD, USA). Wound healing was quantified as a percentage of the original injury size. […]

[6] = test system: VEGF production in bovine aortic endothelial cells (ECs); experiment: VEGF quantification by western blot, EC; type: cell-based; settings: 6 hours of stimulation with hFN, peptides 10^-6 M, mean ± SEM
Description: VEGF production was measured as previously described [26]. Briefly, ECs were seeded at a density of 600000 per well in six well plates, serum starved overnight, seeded with c(RGDf[NMe]V) or RGDechiHCit (10^-6 M) and then stimulated with hFN for 6 hours.
Immunoblot analyses were performed as previously described and validated [23, 28]. […] Levels of VEGF were determined using an antibody raised against VEGF-165 (Santa Cruz Biotechnology) [26]. Experiments were performed in triplicate to ensure reproducibility. Data are presented as arbitrary densitometry units (ADU) after normalization for the total corresponding protein or actin as internal control [24].

c57BL/6 mice = experiment: Matrigel plugs, EC infiltration by lectin staining; type: in vivo, mouse; settings: s.c. Matrigel with VEGF and 10^-5M peptide, seven days, mean ± SEM
Description: as §4
Mice (n = 13), anesthetized as described above, were subcutaneously injected midway on the dorsal side, using sterile conditions, with 0.2 ml of Matrigel® basement matrix, pre-mixed with 10^-6M VEGF and 10^-5M c(RGDf[NMe]V) (n = 4), 10^-6M VEGF and 10^-5M RGDechiHCit (n = 5), or 10^-6M VEGF alone (n = 4). After seven days, mice were euthanized and the implanted plugs were harvested from underneath the skin, fixed in 10% neutral-buffered formalin solution and then embedded in paraffin. Invading ECs were identified and quantified by analysis of lectin immunostained sections, as described.
All tissues were cut in 5 μm sections and slides were counterstained with a standard mixture of hematoxylin and eosin. […]

[7] = human serum (Lonza, Basel, Switzerland); settings: 37°C, up to 24h

Compound	hFN-induced phosphorylation of ERK2 in VSMC [1]	VSMC proliferation ([2]; hFN 100 μg/ml stimulation, peptides 10^-6 M, mean ± SEM, NS)	VSMC proliferative response to hFN at 20h ([2]; hFN stimulation, 20h)	tube formation on Matrigel [3] [branches per 10000 μm^2]	EC proliferation ([4]; hFN 100 μg/ml stimulation, peptides 10^-6 M pre-incubated 30' at 37°C, after 6 hours, mean ± SEM)	EC proliferation, peptide given alone ([4]; without hFN)	hFN-induced phosphorylation of ERK2 in EC [5]	wound healing (closure of full-thickness wounds) (WKY rats; pluronic gel 30% containing 10^-6 M peptide placed daily on 20 mm wound, 8 days)	wound histology (WKY rats; wounds excised 8 days after surgery)	VEGF expression levels in EC [6]	EC infiltration of Matrigel plugs (c57BL/6 mice) [fold over VEGF alone]	not cleaved [7]
CC(C)[C@H]1C(=O)N[C@@H](CCCNC(=N)N)C(=O)NCC(=O)N[C@@H](CC(=O)O)C(=O)N[C@H](Cc2ccccc2)C(=O)N1C [c(RGDf[NMe]V)]	decreased such activation	+0.9 ± 0.09 fold over basal	induced an attenuation of such proliferative response	14.11 ± 3.9	+0.6 ± 0.38 fold over basal	did not affect EC proliferation	significantly inhibited	slowed down healing	exhibited a retarded repair pattern	+3.19 ± 0.73 fold over basal, ADU	0.185 ± 0.027	–
c(RGDf[NMe]V)	–	–	–	–	–	–	–	–	–	–	–	After 24h of incubation chromatogram and mass profiles failed to identify any degradation product
